Experimental data: paper PMC11129499, “The hepatoprotective effect of 4-phenyltetrahydroquinolines on carbon tetrachloride induced hepatotoxicity in rats through autophagy inhibition” (Biological Research, 2024)

Key:
liver tissues = assay: In-vivo toxicity study (compounds only), liver histopathology (H&E, Masson trichrome); parameters: key to fibrosis score in liver sections (safety profile): F0 = no fibrosis; F1 = mild/moderate; F2 = significant; F3 = advanced fibrosis; F4 = cirrhosis; details: compound only, 25 mg/kg p.o. 14 days; for fibrosis score in liver sections (safety profile): Masson trichrome, METAVIR; for lobular inflammation in liver sections (safety profile): H&E, noted less frequently in Cpd 2b
Method: (§1) Rats were divided into eleven groups, with seven rats in each group. Group I, the control group, received corn oil (1 ml/kg body weight, i.p.) every 72 h for 14 days. Group II, the hepatotoxicity group, received CCl4 (1 ml/kg body weight, a 1:1 v/v mixture of CCl4 and corn oil, i.p.) every 72 h for 14 days. Groups III–VI, the treated groups, received compounds (1a, 1b, 2a, and 2b), respectively, (25 mg/kg body weight, suspended in 0.5% CMC, p.o.) every 24 h, as well as CCl4 (1 ml/kg body weight, a 1:1 v/v mixture of CCl4 and corn oil, i.p.) every 72 h for 14 days. Group VII, the positive control group, received silymarin (100 mg/kg, suspended in 0.5% CMC, p.o.) every 24 h, as well as CCl4 (1 ml/kg body weight, a 1:1 v/v mixture of CCl4 and corn oil, i.p.) every 72 h for 14 days. Groups VIII–XI, the safety profile groups, received only compounds (1a, 1b, 2a, and 2b), respectively, (25 mg/kg, suspended in 0.5% CMC, p.o.) every 24 h for 14 days.
(§2) Rats were euthanized 24 h after the last dose of treatment with an inhaled overdose of isoflurane. Blood was extracted through a cardiac puncture, left for coagulation, and the serum was obtained by centrifugation for 10 min at 5000 rpm (GBF501, Centrifuge Cencom-II, Selecta). Livers were collected, then dissected into portions. One portion was fixed overnight in 10% buffered formalin (Adwic—El Nasr Pharmaceutical Co., Egypt) for histological examination. Another portion was homogenized, centrifuged at 10,000 rpm for 10 min, and the supernatants were collected for further investigation. Total protein content of all homogenates were determined using the Pierce™ BCA Protein Assay Kit (Catalog number: 23227, Thermo-Fisher Scientific Co., USA) following the manufacturer’s instructions. Liver tissues and homogenates were stored at − 80 °C until used.
(§3) Serial sectioning was done on the formalin-fixed liver tissues, which were then processed into paraffin blocks. Multiple serial, 5-μm-thick sections were cut and mounted on glass slides. One section was stained by H&E stain to assess the activity, while the other was stained by Masson trichrome stain to assess fibrosis. Both activity and fibrosis were assessed using a light microscope (Olympus, CX 22LED) using the METAVIR scoring system. For activity, the number of inflammatory foci (lobular necrosis) and degree of portal inflammation (piece meal necrosis) were evaluated, and then a final histological activity score was given (A0 = none, A1 = mild, A2 = moderate, and A3 = sever). Meanwhile, fibrosis assessment was done on Masson trichrome stained sections. The fibrosis scored according to a 4-tiered system (F0 = no fibrosis, F1 = mild/moderate, F2 = significant, F3 = advanced fibrosis, and F4 = cirrhosis). Other pathologic features, such as the presence or absence of steatosis and/or apoptotic hepatocytes, were assessed if present.

[1] = test system: CCl4-induced hepatotoxicity; assay: CCl4-induced hepatotoxicity model, liver histopathology (METAVIR scoring); format: in vivo, Wistar albino male rats; parameters: key to activity grade (METAVIR): A0 = none; A1 = mild; A2 = moderate; A3 = sever; key to fibrosis score (METAVIR): F0 = no fibrosis; F1 = mild/moderate; F2 = significant; F3 = advanced fibrosis; F4 = cirrhosis; details: 14 days
Method: as §1, §2, §3

[2] = In-vivo toxicity study (compounds only), serum liver, lipid and kidney tests; details: compound only, 25 mg/kg p.o. every 24 h for 14 days
Method: (§4) Rats were divided into eleven groups, with seven rats in each group. Group I, the control group, received corn oil (1 ml/kg body weight, i.p.) every 72 h for 14 days. Group II, the hepatotoxicity group, received CCl4 (1 ml/kg body weight, a 1:1 v/v mixture of CCl4 and corn oil, i.p.) every 72 h for 14 days. Groups III–VI, the treated groups, received compounds (1a, 1b, 2a, and 2b), respectively, (25 mg/kg body weight, suspended in 0.5% CMC, p.o.) every 24 h, as well as CCl4 (1 ml/kg body weight, a 1:1 v/v mixture of CCl4 and corn oil, i.p.) every 72 h for 14 days. […]
(§5) Rats were euthanized 24 h after the last dose of treatment with an inhaled overdose of isoflurane. […] Total protein content of all homogenates were determined using the Pierce™ BCA Protein Assay Kit (Catalog number: 23227, Thermo-Fisher Scientific Co., USA) following the manufacturer’s instructions. […]
A variety of colorimetric serum diagnostic kits were used to assess the toxicity and hepatoprotective potential of the newly synthesized derivatives. Lipid profile parameters, including total cholesterol (TC) and triglycerides (TG), as well as kidney function tests, urea, and creatinine were measured to evaluate the toxicity profile. […]

[3] = test system: Human hepatoma (HepG2) cells; assay: MTT in-vitro cytotoxicity assay on HepG2 cells; format: cell-based; details: HepG2, 24 h treatment, 7.8125-500 μM
Method: Human hepatoma (HepG2) cells were used to evaluate the in-vitro cytotoxicity of the newly synthesized compounds compared to tacrine as their structure-inspiring drug. The HepG2 cell line was obtained from ATCC. The cells were cultured in DMEM with high glucose, supplemented with 10% FBS, 100 U/ml penicillin, and 1% streptomycin were maintained in a 37 °C incubator with 5% CO2 in a humidified atmosphere. One day before the treatment, cells were seeded at a density of 1 × 10^4 cells/well in a sterile flat bottom 96-well tissue culture plate. After leaving the cells to adhere for 24 h, cells were treated with different concentrations (7.8125, 15.625, 31.25, 62.5, 125, 250, and 500 μM) of each compound as well as tacrine for 24 h in the 5% CO2 incubator.
Thereafter, cell viability was assessed using a 3-(4,5-dimethyl-2-thiazolyl)-2,5-diphenyl-tetrazolium bromide (MTT) assay obtained from Biobasic inc (Canada). Following the 24-h treatment period, MTT was added to the wells at a final concentration of 0.5 mg/mL, and the cells were incubated for 4 h in the dark. Subsequently, the media were carefully removed from the wells, and the formed formazan crystals were dissolved by adding 100 μL of DMSO. Absorbance readings were taken using a microplate reader (BioTek, USA), and the percentage cell viability was calculated for each condition relative to the control cells treated with the same DMSO concentration.

[4] = test system: alpha-smooth muscle actin (α-SMA) positive HSCs/myofibroblasts; assay: CCl4 model, α-SMA immunohistochemistry of liver sections; format: in vivo, Wistar albino male rats; details: CCl4 + compound 25 mg/kg p.o. daily, 14 days; vs hepatotoxicity group
Method: as §1
From paraffin-embedded blocks of liver tissues, 4- to 5-μm-thick sections were cut using a semi-automated microtome. […] They were stained by alpha-smooth muscle actin (α-SMA) primary antibody (Clone 1A4, ready-to-use, mouse monoclonal antibody, Dako) using the autostainer DAKO link 48. […] Using Image J software, activated HSCs/myofibroblasts were counted in the five high power fields. […] Only cells with well-visible nuclei were counted.

LC3B = assay: CCl4 model, LC3B ELISA in liver homogenates; format: in vivo, Wistar albino male rats; details: CCl4 + compound 25 mg/kg (silymarin 100 mg/kg) p.o. daily, 14 days
Method: as §4, §5
(§6) The pro-inflammatory and pro-fibrotic cytokines tumor necrosis factor alpha (TNF-α) and transforming growth factor beta (TGF-β) were evaluated in liver tissues using ELISA kits (Catalog Numbers: CSB-E11987r and CSB-E04727r, CUSABIO, USA). For further investigation of the potential mechanism of action of the synthesized compounds, the levels of autophagy-related proteins, Beclin-1 (Catalog Number: CSB-EL002658RA, CUSABIO, USA) and LC3B (Catalog No. LS-F19802, Lifespan Biosciences, USA), were quantified in liver homogenates. […]

[5] = test system: CCl4-induced oxidative stress; assay: CCl4 model, oxidative stress markers (MDA, GSH) in liver homogenates; format: in vivo, Wistar albino male rats; details: CCl4 + compound 25 mg/kg p.o. daily, 14 days; vs hepatotoxicity group unless stated
Method: as §1, with “Groups VIII–XI, the safety profile groups, received only compounds (1a, 1b, 2a, and 2b), respectively, (25 mg/kg, suspended in 0.5% CMC, p.o.) every 24 h for 14 days.” left out
as §5
The level of reduced glutathione (GSH) was measured in liver tissue homogenates using a colorimetric kit for GSH (Cat.No.E-BC-K030-M, Elabscience, USA). Malondialdehyde (MDA) levels were determined as thiobarbituric acid reactive substances (TBARS) in liver homogenates according to the method of Draper and Hadley.

[6] = test system: tumor necrosis factor alpha (TNF-α); assay: CCl4 model, TNF-α ELISA in liver tissues; format: in vivo, Wistar albino male rats; details: CCl4 + compound 25 mg/kg p.o. daily, 14 days; vs hepatotoxicity group unless stated
Method: as §4, §5, §6

[7] = test system: CCl4-induced hepatotoxicity; assay: CCl4-induced hepatotoxicity model, serum liver function tests; format: in vivo, Wistar albino male rats; details: CCl4 1 ml/kg i.p. every 72 h + compound 25 mg/kg p.o. daily, 14 days; vs hepatotoxicity group unless stated
Method: as §1, §2
A variety of colorimetric serum diagnostic kits were used to assess the toxicity and hepatoprotective potential of the newly synthesized derivatives. Lipid profile parameters, including total cholesterol (TC) and triglycerides (TG), as well as kidney function tests, urea, and creatinine were measured to evaluate the toxicity profile. Liver function tests, including alanine transaminase (ALT), aspartate transaminase (AST), alkaline phosphatase (ALP), and total bilirubin (TBIL) were used for the assessment of both hepatotoxicity and hepatoprotective potential. All diagnostic kits were purchased from Biodiagnostics, Egypt, and were used and stored according to the manufacturer’s instructions.

[8] = test system: transforming growth factor beta (TGF-β); assay: CCl4 model, TGF-β ELISA in liver tissues; format: in vivo, Wistar albino male rats; details: CCl4 + compound 25 mg/kg p.o. daily, 14 days; vs hepatotoxicity group unless stated
Method: as §4, §5, §6

Beclin-1 = assay: CCl4 model, Beclin-1 ELISA in liver homogenates; format: in vivo, Wistar albino male rats; details: CCl4 + compound 25 mg/kg (silymarin 100 mg/kg) p.o. daily, 14 days
Method: as §4, §5, §6

[9] = CCl4 + compound 25 mg/kg p.o. daily
[10] = CCl4 + compound 25 mg/kg (silymarin 100 mg/kg) p.o. daily

| SMILES | fibrosis score in liver sections (safety profile) (liver tissues) | fibrosis score (METAVIR) ([1]; CCl4 + compound 25 mg/kg (silymarin 100 mg/kg) p.o. daily, hepatotoxicity group F4) | steatosis and apoptotic cells in liver sections [1, 9] | activity grade (METAVIR) ([1]; CCl4 + compound 25 mg/kg p.o. daily, hepatotoxicity group A3) | total cholesterol (safety profile) [2] | triglyceride levels (safety profile) [2] | IC50 [3] | lobular inflammation in liver sections (safety profile) (liver tissues) | improvement of liver fibrosis / architecture, in words [1, 10] | number of α-SMA positive cells / 5 HPFs [4] | expression of LC3B protein (LC3B) | MDA levels in liver homogenates [5] | TNF-α level in liver tissues [6] | serum ALT [7] | serum AST [7] | lobular and portal inflammation (activity), in words [1, 9] | TGF-β level in liver tissues [8] | expression of Beclin-1 protein (Beclin-1) |
| --- | --- | --- | --- | --- | --- | --- | --- | --- | --- | --- | --- | --- | --- | --- | --- | --- | --- | --- |
| CN(C)c1ccc(-c2c3c([nH]c(=O)c2C#N)CCCC3)cc1 [Cpd 1a, 4-(4-(dimethylamino)phenyl)-1,2,5,6,7,8-hexahydro-2-oxoquinoline-3-carbonitrile] | F0 | F3 | Macrovesicular steatosis and apoptotic cells were still detected | A2 | significantly lowering | significantly lowering | 181 µM |  |  |  |  |  |  |  |  |  |  |  |
| N#Cc1c(-c2ccc(O)cc2)c2c([nH]c1=O)CCCC2 [Cpd 1b, 1,2,5,6,7,8-hexahydro-4-(4-hydroxyphenyl)-2-oxoquinoline-3-carbonitrile] | F0 |  |  |  |  |  | 174 µM | mild, insignificant lobular inflammation (activity grade 1) | better improvement in fibrosis score |  |  |  |  |  |  |  |  |  |
| CN(C)c1ccc(-c2c(C#N)c(N)nc3c2CCCC3)cc1 [Cpd 2a, 2-Amino-4-(4-(dimethylamino)phenyl)-5,6,7,8-tetrahydroquinoline-3-carbonitrile] | F0 |  | No steatosis or apoptotic cells were detected |  |  |  | 171 µM |  | best protective effect on the liver sections | better levels of significance, closely aligning with silymarin | greater impact on inhibiting autophagy compared to the other compounds tested | highly superior to compounds 1a, 1b and silymarin | better effect on decreasing the level of both cytokines relative to compounds 1a and 1b and silymarin | as beneficial as silymarin | as beneficial as silymarin | improved markedly | better effect on decreasing the level of both cytokines relative to compounds 1a and 1b and silymarin | greater impact on inhibiting autophagy compared to the other compounds tested |
| N#Cc1c(N)nc2c(c1-c1ccc(O)cc1)CCCC2 [Cpd 2b, 2-Amino-5,6,7,8-tetrahydro-4-(4-hydroxyphenyl)quinoline-3-carbonitrile] | F0 |  |  |  |  |  | 169 µM | mild, insignificant lobular inflammation (activity grade 1) | better improvement in fibrosis score | better levels of significance, closely aligning with silymarin | greater impact on inhibiting autophagy compared to the other compounds tested | highly superior to compounds 1a, 1b and silymarin | better effect on decreasing the level of both cytokines relative to compounds 1a and 1b and silymarin | as beneficial as silymarin | as beneficial as silymarin |  | better effect on decreasing the level of both cytokines relative to compounds 1a and 1b and silymarin | greater impact on inhibiting autophagy compared to the other compounds tested |
| Nc1c2c(nc3ccccc13)CCCC2 [tacrine, Tacrine, reference compound] |  |  |  |  |  |  | 124 µM |  |  |  |  |  |  |  |  |  |  |  |
